From BindingDB's records for doi:10.1021/jm0701019 (Abbott Laboratories, 2007)

target: T1, RAC-alpha serine/threonine-protein kinase [139-480,S378A,S381A,T450D,S473D] (Homo sapiens, UniProt P31749, S378A/S381A/S473D/T450D); assay: Akt Kinase Assay; conditions: not given
T1 construct: 139-480
Experimental: The kinase assay uses His-Akt1 and a biotinylated peptide as substrate. The biotinylated peptides were immobilized on streptavidin-coated FLASH plates. After reaction, the 33P-phosphopeptide captured on the FLASH plates was measured with a TopCount Packard Instruments […] (Packard Instruments, Boston, MA).

T1 sequence (P31749 139-480 S378A/S381A/T450D/S473D): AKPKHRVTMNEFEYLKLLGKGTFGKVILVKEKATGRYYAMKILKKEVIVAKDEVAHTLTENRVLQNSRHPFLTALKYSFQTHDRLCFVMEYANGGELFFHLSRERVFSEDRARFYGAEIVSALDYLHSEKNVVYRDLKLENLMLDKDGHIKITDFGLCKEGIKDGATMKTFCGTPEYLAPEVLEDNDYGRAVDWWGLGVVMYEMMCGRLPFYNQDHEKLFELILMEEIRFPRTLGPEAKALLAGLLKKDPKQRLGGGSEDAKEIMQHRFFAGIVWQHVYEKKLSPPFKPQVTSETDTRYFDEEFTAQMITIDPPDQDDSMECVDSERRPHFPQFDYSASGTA

Compound | IC50 [nM]
Cc1n[nH]c2cnc(-c3cncc(OC[C@@H](N)Cc4cccc(C(F)(F)F)c4)c3)cc12 [3-[(2S)-2-amino-3-[3-(trifluoromethyl)phenyl]propoxy]-5-{3-methyl-1H-pyrazolo[3,4-c]pyridin-5-yl}pyridine] | 0.6
Cc1n[nH]c2ccc(-c3cncc(OC[C@@H](N)Cc4cccc(OCCN5CCOCC5)c4)c3)cc12 [4-(2-{3-[(2S)-2-amino-3-{[5-(3-methyl-1H-indazol-5-yl)pyridin-3-yl]oxy}propyl]phenoxy}ethyl)morpholine] | 751
Cc1n[nH]c2ccc(-c3cncc(OC[C@@H](N)Cc4ccc5c(c4)OC(F)(F)C(F)(F)O5)c3)cc12 [5-{5-[(2S)-2-amino-3-(2,2,3,3-tetrafluoro-2,3-dihydro-1,4-benzodioxin-6-yl)propoxy]pyridin-3-yl}-3-methyl-1H-indazole] | 13
Cc1n[nH]c2ccc(-c3cncc(OC[C@@H](N)Cc4cccc5c4OC(F)(F)O5)c3)cc12 [5-{5-[(2S)-2-amino-3-(2,2-difluoro-2H-1,3-benzodioxol-4-yl)propoxy]pyridin-3-yl}-3-methyl-1H-indazole] | 14
Cc1n[nH]c2ccc(-c3cncc(OC[C@@H](N)Cc4ccccc4Cl)c3)cc12 [5-{5-[(2S)-2-amino-3-(2-chlorophenyl)propoxy]pyridin-3-yl}-3-methyl-1H-indazole] | 29
Cc1n[nH]c2ccc(-c3cncc(OC[C@@H](N)Cc4ccc5c(c4)OCO5)c3)cc12 [5-{5-[(2S)-2-amino-3-(2H-1,3-benzodioxol-5-yl)propoxy]pyridin-3-yl}-3-methyl-1H-indazole] | 42
Cc1n[nH]c2ccc(-c3cncc(OC[C@@H](N)Cc4cccc(-c5ccccc5)c4)c3)cc12 [5-{5-[(2S)-2-amino-3-(3-phenylphenyl)propoxy]pyridin-3-yl}-3-methyl-1H-indazole] | 126

Continued, values first:

IC50 [nM] | Compound
5.6 | Cc1n[nH]c2ccc(-c3cncc(OC[C@@H](N)Cc4cccc(Cl)c4Cl)c3)cc12 [5-{5-[(2S)-2-amino-3-(2,3-dichlorophenyl)propoxy]pyridin-3-yl}-3-methyl-1H-indazole]
2.4 | Cc1ccc(C[C@H](N)COc2cncc(-c3ccc4[nH]nc(C)c4c3)c2)cc1F [5-{5-[(2S)-2-amino-3-(3-fluoro-4-methylphenyl)propoxy]pyridin-3-yl}-3-methyl-1H-indazole]
0.9 | Cc1n[nH]c2ccc(-c3cncc(OC[C@@H](N)Cc4cccc(I)c4)c3)cc12 [5-{5-[(2S)-2-amino-3-(3-iodophenyl)propoxy]pyridin-3-yl}-3-methyl-1H-indazole]
10 | Cc1n[nH]c2ccc(-c3cncc(OC[C@@H](N)Cc4ccc(Br)cc4F)c3)cc12 [5-{5-[(2S)-2-amino-3-(4-bromo-2-fluorophenyl)propoxy]pyridin-3-yl}-3-methyl-1H-indazole]

same assay, conditions: pH 7.5; 22 °C

Compound | IC50 [nM]
N[C@H](COc1cncc(-c2ccc3c(c2)CC(=O)N3)c1)Cc1ccccc1 [5-(5-{[(2S)-2-amino-3-phenylpropyl]oxy}pyridin-3-yl)-1,3-dihydro-2H-indol-2-one] | 2650
Cc1n[nH]c2ccc(-c3cncc(OC[C@@H](N)Cc4ccc(F)c(F)c4F)c3)cc12 [5-{5-[(2S)-2-amino-3-(2,3,4-trifluorophenyl)propoxy]pyridin-3-yl}-3-methyl-1H-indazole] | 12
Cc1n[nH]c2ccc(-c3cncc(OC[C@@H](N)Cc4cccc(F)c4F)c3)cc12 [5-{5-[(2S)-2-amino-3-(2,3-difluorophenyl)propoxy]pyridin-3-yl}-3-methyl-1H-indazole] | 8.5
Cc1n[nH]c2ccc(-c3cncc(OC[C@@H](N)Cc4c(F)cccc4F)c3)cc12 [5-{5-[(2S)-2-amino-3-(2,6-difluorophenyl)propoxy]pyridin-3-yl}-3-methyl-1H-indazole] | 65.5
Cc1n[nH]c2ccc(-c3cncc(OC[C@@H](N)Cc4cccc(F)c4)c3)cc12 [5-{5-[(2S)-2-amino-3-(3-fluorophenyl)propoxy]pyridin-3-yl}-3-methyl-1H-indazole] | 8.4
